# Measured values from patent US20020147196A1, “Composition and method for treating neuropathic pain” (priority 2001, published 2002).
# Experiments:
# Format in all cases: in vivo, rat
# [1] = test system: CCI-induced tactile allodynia; assay: CCI model of neuropathic pain: mechanical (tactile) allodynia assessed with Von Frey hair monofilaments
# Protocol: (§1) All experiments were performed using the chronic constriction injury (CCI) model of neuropathic pain in the rat. Under isoflurane anaesthesia, the common left sciatic nerve of male random hooded rats (180-220 g) was exposed at mid thigh level. Four ligatures of chromic gut (4.0) were tied loosely around the nerve with a 1 mm spacing between each. The wound was then closed and secured with suture clips. The surgical procedure was identical for the sham operated animals except the sciatic nerve was not ligated. The animals were allowed a period of 10 days to recover from the surgery before any behavioural testing began. The effect of the test compound on CCI-induced decrease in mechanical paw withdrawal threshold was measured using an algesymeter (Randall & Selitto, 1957). The presence of mechanical allodynia was assessed using Von Frey hair mono filaments (range: 4.19-84.96 g). The rats were lightly restrained and placed upon a metal grid floor, from below which the monofilaments were applied to the plantar surface of the hindpaws. The lowest monofilament to produce a withdrawal was the response recorded.
# (§2) All data were expressed as mean±s.e.mean. Statistical analysis was carried out to compare the difference between the drug treated group and vehicle treated groups using unpaired Student's t-test (P<0.05 considered significant).
# [2] = observation of adverse side effects during chronic dosing in the CCI experiments
# Protocol: Lamotrigine (30 mgkg^−1 b.i.d. p.o.) was dosed chronically for a period of 12 days. The dose chosen was determined from previous “in-house” data and doses believed to be efficacious in the clinical treatment of neuropathic pain.
# Bupropion (10 mgkg^−1 b.i.d. p.o.) was dosed chronically for a period of 8 days. The dose chosen reflects both previous “in-house” data and that which is believed to be efficacious in the clinical treatment of neuropathic pain.
# [3] = test system: CCI-induced decrease in mechanical paw withdrawal threshold; assay: chronic constriction injury (CCI) model of neuropathic pain: mechanical paw withdrawal threshold measured with an algesymeter; details: for known minimum effective dose in the CCI model: b.i.d. p.o., shown previously to have efficacy in the CCI model
# Protocol: as §1, §2
# [4] = bupropion 10 mgkg^−1 b.i.d. p.o., days 47-54
Compound,"reversal of tactile allodynia following cessation of treatment ([1]; bupropion 10 mgkg^−1 b.i.d. p.o., after cessation)","effect on tactile allodynia (Von Frey hair withdrawal threshold) during chronic dosing [1, 4]","day of maximal reversal of tactile allodynia ([1]; bupropion 10 mgkg^−1 b.i.d. p.o., days 47-54, last day of dosing) [days]",adverse side effects as a result of the surgery or chronic dosing schedule ([2]; bupropion 10 mgkg^−1 b.i.d. p.o. for 8 days),known minimum effective dose in the CCI model [3] [mgkg^−1],"effect on paw withdrawal thresholds in sham-operated rats ([3]; bupropion 10 mgkg^−1, first day of dosing only, 1 hour post dose, sham-operated rats)","reversal of the fall in paw withdrawal threshold back towards sham-operated levels after a single dose ([3]; bupropion 10 mgkg^−1, single dose)","reversal of paw withdrawal threshold during the chronic dosing period [3, 4]","time the reversal of paw withdrawal threshold was maintained following cessation of treatment [3, 4] [days]",effect on CCI-induced tactile allodynia (Von Frey hair withdrawal threshold) during chronic dosing ([1]; lamotrigine 30 mgkg^−1 b.i.d. p.o.),"effect on tactile allodynia following cessation of treatment, compared to vehicle treated group ([1]; lamotrigine 30 mgkg^−1 b.i.d. p.o., after cessation)",adverse side effects as a result of the surgery or chronic dosing schedule ([2]; lamotrigine 30 mgkg^−1 b.i.d. p.o. for 12 days),"reversal of the CCI-induced decrease in paw-withdrawal threshold to that of sham-operated animals ([3]; lamotrigine 30 mgkg^−1 twice daily p.o., days 13-24 post-operative)","post-operative day until which the analgesic effect was maintained following cessation of treatment ([3]; lamotrigine 30 mgkg^−1 twice daily p.o., dosing ended day 24) [day post-operative]","post-operative day by which the decrease in paw-withdrawal threshold was fully reversed ([3]; lamotrigine 30 mgkg^−1 twice daily p.o., dosing from day 13 post-operative) [days]"
CC(NC(C)(C)C)C(=O)c1cccc(Cl)c1 (stereo not shown) [bupropion],not maintained,some effect,54,No adverse side effects were observed,10,small effect,immediate reversal,maintained throughout the chronic dosing period,4,,,,,,
Nc1nnc(-c2cccc(Cl)c2Cl)c(N)n1 [lamotrigine],,,,,10,,,,,transient reversal,small reversal,No adverse side effects were observed,fully reversed,37,≤ 16
